Assay results reported in ChEMBL document CHEMBL1148805 (J Med Chem, 2007).
Calls of active or inactive are those of the source. The calls are words filed in the database; no cut-off is given here.

Columns and labels:
[1] = target: Aldo-keto reductase family 1 member A1 (Rattus norvegicus, UniProt P51635)
Description: Inhibition of ALR1 in Sprague-Dawley Albino rat kidney

Brain [2] = assay: tissue or blood; settings: Rattus norvegicus, Sprague-Dawley Albino
[3] = target: Aldo-keto reductase family 1 member B1 (Rattus norvegicus, UniProt P07943)
Description: Inhibition of ALR2 in Sprague-Dawley Albino rat lens

Brain [4] = assay: tissue or blood; settings: Rattus norvegicus, Sprague-Dawley Albino; remark: listed apart in the source
Brain [5] = settings: Rattus norvegicus, Sprague-Dawley Albino, 10 uM

Aldo-keto reductase family 1 member A1, sequence (P51635 whole entry, looked up): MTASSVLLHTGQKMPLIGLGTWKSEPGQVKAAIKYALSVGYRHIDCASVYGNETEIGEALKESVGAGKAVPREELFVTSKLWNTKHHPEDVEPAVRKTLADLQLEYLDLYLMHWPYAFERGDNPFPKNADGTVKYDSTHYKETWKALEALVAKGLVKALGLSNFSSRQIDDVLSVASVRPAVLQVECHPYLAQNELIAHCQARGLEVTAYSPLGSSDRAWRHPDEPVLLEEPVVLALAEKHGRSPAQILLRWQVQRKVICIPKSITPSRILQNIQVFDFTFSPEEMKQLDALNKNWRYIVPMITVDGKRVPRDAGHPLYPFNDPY
Description for physchem: Acid dissociation constant, pKa of the compound

IC50 [1] [µM]	IC50 [3] [µM]	pKa (physchem)	SMILES	inhibition at 100 µM (Brain [2]) [%]	inhibition at 10 µM (Brain [4]) [%]	Activity (Brain [5])
> 10	44	–	O=c1cc(Cc2ccc(O)cc2)nc2cccc(O)n12	51.4	11.5	–
> 10	0.45	–	O=c1cc(-c2ccc(O)c(O)c2)nc2c(O)cccn12	81.5	48.2	–
–	–	–	CC(=O)N(O)CCCCCNC(=O)CCC(=O)N(O)CCCCCNC(=O)CCC(=O)N(O)CCCCCN [DEFEROXAMINE]	72	–	–
> 10	55	–	O=c1cc(Cc2ccccc2)nc2cccc(O)n12	45.7	19.3	–
> 10	> 10	–	COc1ccc(-c2cc(=O)n3cccc(O)c3n2)cc1	11.5	3.4	–
> 10	0.67	6.8	O=c1cc(-c2ccc(O)c(O)c2)nc2ccccn12	71.6	26.6	–
–	–	–	Cc1c(C)c2c(c(C)c1O)CC[C@@](C)(CCCC(C)CCCC(C)CCCC(C)C)O2 (single isomer, unassigned) [ALPHA-TOCOPHEROL]	18.2	–	–
> 10	> 10	10.2	O=c1cc(-c2ccccc2)nc2c(O)cccn12	11.9	5.9	–
> 10	0.74	–	COc1ccc(-c2cc(=O)n3c(O)cccc3n2)cc1	82.8	50.4	–
> 10	> 10	–	COc1ccc(-c2cc(=O)n3ccccc3n2)cc1	15.1	8.3	–
> 10	0.1	–	O=c1cc(-c2ccc(O)c(O)c2)nc2cccc(O)n12	85.9	66.5	–
> 10	12	–	O=c1cc(Cc2ccc(O)c(O)c2)nc2cccc(O)n12	89.9	56.7	–
> 10	0.42	–	O=c1cc(-c2ccc(O)cc2)nc2cccc(O)n12	42.4	21.2	–
> 10	> 10	–	O=c1cc(-c2ccccc2)nc2ccccn12	22.4	10.8	–
> 10	4.56	7.6	O=c1cc(-c2ccc(O)cc2)nc2ccccn12	23.7	–	inactive
> 10	> 10	–	COc1ccc(Cc2cc(=O)n3c(O)cccc3n2)cc1OC	45.1	25.8	–
> 10	> 10	–	COc1ccc(-c2cc(=O)n3ccccc3n2)cc1OC	18.8	–	inactive
> 10	100	–	COc1ccc(-c2cc(=O)n3c(O)cccc3n2)cc1OC	64.7	28.5	–
> 10	2.07	–	O=c1cc(-c2ccc(O)cc2)nc2c(O)cccn12	43.2	11.8	–
> 10	> 10	–	COc1ccc(Cc2cc(=O)n3c(O)cccc3n2)cc1	42.4	18.9	–
> 10	> 10	–	COc1ccc(-c2cc(=O)n3cccc(O)c3n2)cc1OC	8.8	1.2	–
